Calls of active or inactive are those of the source. The rule behind the calls is not given here.

By Ki is commonly meant the equilibrium dissociation constant of an inhibitor or competing ligand from its target.

The target in test [1] is T1, Cholinesterase (Homo sapiens, UniProt P06276). Nature of the test: Inhibition of human serum BchE by Ellman's assay.
In test [2] the target is Acetylcholinesterase (Homo sapiens) (UniProt P22303).
Description: Inhibition of human recombinant AchE by Ellman's assay
Test [3] deals with T1, Cholinesterase. Nature of the test: Deactivation of human BchE F329S mutant assessed as residual enzyme activity at 2.1 uM after 5 mins.
Test [4] concerns the target T1, Cholinesterase. Kind of test: Deactivation of human wild type recombinant BchE assessed as residual enzyme activity at 2.1 uM after 10 mins.
Test [5] concerns the target T1, Cholinesterase. Nature of the test: Deactivation of human BchE A539T mutant assessed as residual enzyme activity at 2.1 uM after 15 mins.
The target of test [6] is T1, Cholinesterase. Nature of the test: Deactivation of human BchE F329A mutant assessed as residual enzyme activity at 2.1 uM after 15 mins.
The target of test [7] is T1, Cholinesterase. Kind of test: Deactivation of human BchE A539T mutant assessed as residual enzyme activity at 2.1 uM after 10 mins.
Test [8] concerns the target T1, Cholinesterase. Kind of test: Deactivation of human BchE Y332A mutant assessed as residual enzyme activity at 2.1 uM after 10 mins.
The target of test [9] is T1, Cholinesterase. Kind of test: Deactivation of human wild type recombinant BchE assessed as residual enzyme activity at 2.1 uM after 5 mins.
In test [10] the target is T1, Cholinesterase. Nature of the test: Deactivation of human BchE A328F mutant assessed as residual enzyme activity at 2.1 uM after 5 mins.
The target of test [11] is T1, Cholinesterase. Nature of the test: Deactivation of human BchE F329S mutant assessed as residual enzyme activity at 2.1 uM after 10 mins.
Test [12] addresses T1, Cholinesterase. Nature of the test: Deactivation of human BchE Y332A mutant assessed as residual enzyme activity at 2.1 uM after 5 mins.
In test [13] the target is T1, Cholinesterase. Kind of test: Deactivation of human BchE A328W mutant assessed as residual enzyme activity at 2.1 uM after 15 mins.
Test [14] addresses T1, Cholinesterase. Kind of test: Deactivation of human BchE Y332A mutant assessed as residual enzyme activity at 2.1 uM after 15 mins.
Test [15] concerns the target T1, Cholinesterase. Kind of test: Deactivation of human BchE D70G mutant assessed as residual enzyme activity at 2.1 uM after 15 mins.
Test [16] addresses T1, Cholinesterase. Nature of the test: Deactivation of human BchE F329A mutant assessed as residual enzyme activity at 2.1 uM after 10 mins.
Test [17] concerns the target T1, Cholinesterase. Kind of test: Deactivation of human BchE A328Y mutant assessed as residual enzyme activity at 2.1 uM after 5 mins.
For test [18], the target named is T1, Cholinesterase. Kind of test: Deactivation of human BchE A328W mutant assessed as residual enzyme activity at 2.1 uM after 10 mins.
For test [19], the target named is T1, Cholinesterase. Kind of test: Deactivation of human BchE D70G mutant assessed as residual enzyme activity at 2.1 uM after 5 mins.
The target of test [20] is T1, Cholinesterase. Kind of test: Deactivation of human BchE D70G mutant assessed as residual enzyme activity at 2.1 uM after 10 mins.
The target in test [21] is T1, Cholinesterase. Kind of test: Inhibition of human serum BchE at 23.6 uM by Ellman's assay. In general terms: DTNB colorimetry detects thiols as they appear.
Test [22] addresses T1, Cholinesterase. Nature of the test: Deactivation of human BchE A328W mutant assessed as residual enzyme activity at 2.1 uM after 5 mins.
Test [23] addresses T1, Cholinesterase. Kind of test: Deactivation of human BchE A539T mutant assessed as residual enzyme activity at 2.1 uM after 5 mins.
In test [24] the target is T1, Cholinesterase. Kind of test: Deactivation of human BchE A328Y mutant assessed as residual enzyme activity at 2.1 uM after 15 mins.
The target of test [25] is T1, Cholinesterase. Kind of test: Deactivation of human BchE F329A mutant assessed as residual enzyme activity at 2.1 uM after 5 mins.
The target of test [26] is T1, Cholinesterase. Nature of the test: Deactivation of human BchE A328Y mutant assessed as residual enzyme activity at 2.1 uM after 10 mins.
The target in test [27] is T1, Cholinesterase. Kind of test: Deactivation of human BchE A328F mutant assessed as residual enzyme activity at 2.1 uM after 10 mins.
Test [28] has as its target T1, Cholinesterase. Kind of test: Deactivation of human wild type recombinant BchE assessed as residual enzyme activity at 2.1 uM after 15 mins.
Test [29] addresses T1, Cholinesterase. Kind of test: Deactivation of human BchE A328F mutant assessed as residual enzyme activity at 2.1 uM after 15 mins.
Test [30] deals with T1, Cholinesterase. Kind of test: Deactivation of human BchE F329S mutant assessed as residual enzyme activity at 2.1 uM after 15 mins.
Test [31] deals with T1, Cholinesterase. Nature of the test: Inhibition of human serum BchE at 73.3 uM by Ellman's assay.

T1 sequence (P06276 whole entry): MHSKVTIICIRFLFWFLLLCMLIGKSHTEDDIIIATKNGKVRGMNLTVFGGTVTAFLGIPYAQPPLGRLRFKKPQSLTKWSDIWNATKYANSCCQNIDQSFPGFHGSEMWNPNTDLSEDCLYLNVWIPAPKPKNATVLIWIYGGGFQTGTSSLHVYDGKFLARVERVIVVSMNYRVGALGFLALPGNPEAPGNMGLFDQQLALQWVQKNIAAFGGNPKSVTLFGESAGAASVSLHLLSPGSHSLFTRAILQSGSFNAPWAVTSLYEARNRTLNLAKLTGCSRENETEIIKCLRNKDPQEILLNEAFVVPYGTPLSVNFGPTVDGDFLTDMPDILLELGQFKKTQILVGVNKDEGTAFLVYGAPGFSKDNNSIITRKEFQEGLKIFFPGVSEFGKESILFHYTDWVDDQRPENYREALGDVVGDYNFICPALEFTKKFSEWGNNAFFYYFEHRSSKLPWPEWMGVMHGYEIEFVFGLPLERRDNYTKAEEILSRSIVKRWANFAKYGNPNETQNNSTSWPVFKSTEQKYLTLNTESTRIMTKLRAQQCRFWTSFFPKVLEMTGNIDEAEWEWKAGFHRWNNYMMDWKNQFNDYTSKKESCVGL
Sequence of Acetylcholinesterase (Homo sapiens) (P22303 whole entry): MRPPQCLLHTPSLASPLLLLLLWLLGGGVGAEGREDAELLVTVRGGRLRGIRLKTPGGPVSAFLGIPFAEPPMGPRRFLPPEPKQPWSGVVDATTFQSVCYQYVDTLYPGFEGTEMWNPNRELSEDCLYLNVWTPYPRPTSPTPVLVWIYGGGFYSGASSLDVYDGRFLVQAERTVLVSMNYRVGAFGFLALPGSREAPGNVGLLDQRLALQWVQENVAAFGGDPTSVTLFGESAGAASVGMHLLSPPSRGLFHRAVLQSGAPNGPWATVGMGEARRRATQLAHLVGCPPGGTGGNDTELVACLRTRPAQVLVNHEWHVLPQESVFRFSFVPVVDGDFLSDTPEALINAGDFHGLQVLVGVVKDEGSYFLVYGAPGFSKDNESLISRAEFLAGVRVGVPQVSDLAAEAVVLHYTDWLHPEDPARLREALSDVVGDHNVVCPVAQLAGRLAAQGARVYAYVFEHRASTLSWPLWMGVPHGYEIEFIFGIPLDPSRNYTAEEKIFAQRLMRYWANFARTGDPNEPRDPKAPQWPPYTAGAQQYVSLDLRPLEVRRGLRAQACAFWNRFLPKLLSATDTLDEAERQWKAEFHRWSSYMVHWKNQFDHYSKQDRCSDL

In turn, `COC(=O)N1c2ccccc2Sc2ccccc21` came in with an inhibition constant Ki in test [1] of 10200 nM. The same molecule displayed a Ka in [2] of 0.426 ×10³ /M/min.
In test [1], `Cc1ccccc1OC(=O)N1c2ccccc2Sc2ccccc21` had a Ki of 390 nM. This molecule had a Ka in [2] of 547 ×10³ /M/min.
In the case of `CCN(CC)CCCOC(=O)N1c2ccccc2Sc2ccccc21`, affinity in test [1] was put at a Ki of 740 nM. The same molecule yielded a Ka in test [2] of 0.21 ×10³ /M/min.
For the molecule `Cc1cccc(OC(=O)N2c3ccccc3Sc3ccccc32)c1`, in [1], affinity was put at a Ki of 1690 nM. In test [2], the Ka turned out to be 7.49 ×10³ /M/min.
Taken in the same sequence, the figures for `O=C(Oc1cccc(Cl)c1)N1c2ccccc2Sc2ccccc21` were 570 nM and 3.21 ×10³ /M/min.
Taken in the same sequence, the figures for `O=C(OCCN1CCOCC1)N1c2ccccc2Sc2ccccc21` were 2400 nM and 0.12 ×10³ /M/min.
In [1], `COc1cccc(OC(=O)N2c3ccccc3Sc3ccccc32)c1` registered a Ki of 710 nM. In [2], this molecule showed a Ka of 89.4 ×10³ /M/min.
As to `CCCCOC(=O)N1c2ccccc2Sc2ccccc21`, in test [1], the affinity, expressed as Ki, was 13400 nM. This molecule also yielded a Ka in test [2] of 0.135 ×10³ /M/min.
In turn, `O=C(OCCN1CCCC1)N1c2ccccc2Sc2ccccc21` yielded a Ki in test [1] of 650 nM. The Ka in test [2] came to 46 ×10³ /M/min.
For the molecule `CC(C)(C)c1ccccc1OC(=O)N1c2ccccc2Sc2ccccc21`, the affinity in test [1] corresponds to a Ki of 120 nM. In [2], this molecule gave a Ka of 0.011 ×10³ /M/min.
The corresponding values for `O=C(Oc1cccc2ccccc12)N1c2ccccc2Sc2ccccc21` are 36 nM and 1650 ×10³ /M/min.
The corresponding values for `O=C(Oc1ccc(Cl)cc1)N1c2ccccc2Sc2ccccc21` are 10500 nM and 7.25 ×10³ /M/min.
`O=C(Oc1ccc2ccccc2c1)N1c2ccccc2Sc2ccccc21` came in with a Ki in test [1] of 120 nM. The molecule also had a Ka in test [2] of 11.2 ×10³ /M/min.
On to `O=C(Oc1ccc(-c2ccccc2)cc1)N1c2ccccc2Sc2ccccc21`, for which the Activity in test [3] stood at 51%; in [4], 100%; in test [5] it was 93%; in test [6] it was 12%; in test [7] it was 94%; in test [8], 87%. Besides, the Activity in [9] was 100%; in test [10] it was 88%; in [11] it was 15%; in test [12] it was 58%; in test [13], 35%; in test [14] it was 85%. Besides, the Activity in test [15] is 76%; in test [16] it was 26%; in test [17] it was 85%; in [18] it was 57%; in test [19] it was 99.5%; in test [20], 90%. In addition, the Activity in [22] amounted to 74%; in test [23], 99%; in test [24], 63%; in [25] it was 46%; in [26] it was 67%; in [27], 75%. Besides, the Activity in [28] was found to be 100%; in test [29] it was 59%; in test [30], 11%. Also, in test [2], the Ka was determined as 910 ×10³ /M/min. The result in test [21] was inactive.
Consider `O=C(Oc1ccccc1)N1c2ccccc2Sc2ccccc21`, for which, in test [1], the affinity, expressed as Ki, was 570 nM. Moreover, the Ka in [2] was 46 ×10³ /M/min.
For the molecule `O=C(OCCN1CCCCC1)N1c2ccccc2Sc2ccccc21`, in [1], the inhibition constant Ki was determined as 3200 nM. The same molecule had a Ka in test [2] of 3 ×10³ /M/min.
On to `CCN(CC)CCOC(=O)N1c2ccccc2Sc2ccccc21`, for which the Ki in test [1] was determined as 610 nM. The Ka in test [2] came to 0.24 ×10³ /M/min.
Consider `CN(C)c1cccc(OC(=O)N2c3ccccc3Sc3ccccc32)c1`, for which the affinity in [1], expressed as Ki, was 1910 nM. In test [2], this molecule registered a Ka of 19200 ×10³ /M/min.
As for `Cc1ccc(OC(=O)N2c3ccccc3Sc3ccccc32)cc1`, the Ki in test [1] came out at 2850 nM. This molecule gave a Ka in test [2] of 92.6 ×10³ /M/min.
`CC(C)(C)c1ccc(OC(=O)N2c3ccccc3Sc3ccccc32)cc1`: in [2], the Ka was 0.63 ×10³ /M/min. Besides, the result in test [31] was inactive.
With `CC(C)OC(=O)N1c2ccccc2Sc2ccccc21`, the affinity in test [1], expressed as Ki, was 18100 nM. The Ka in test [2] stood at 1.8 ×10³ /M/min.
As to `CCOC(=O)N1c2ccccc2Sc2ccccc21`, in test [1], the Ki was 23400 nM. For the same molecule, the Ka in test [2] amounted to 0.193 ×10³ /M/min.
Consider `COc1ccc(OC(=O)N2c3ccccc3Sc3ccccc32)cc1`, for which the affinity in test [1] corresponds to a Ki of 2260 nM. Moreover, the Ka in test [2] turned out to be 1.42 ×10³ /M/min.
As for `O=C(Oc1ccccc1Cl)N1c2ccccc2Sc2ccccc21`, the affinity in test [1], expressed as Ki, was 45400 nM. Also, the Ka in [2] was found to be 18.7 ×10³ /M/min.
In the case of `CN(C)CCOC(=O)N1c2ccccc2Sc2ccccc21`, the Ki in test [1] is 2450 nM. Further, the Ka in [2] stood at 0.546 ×10³ /M/min.
Taken in the same sequence, the figures for `O=C(OC1CCCC1)N1c2ccccc2Sc2ccccc21` were 3190 nM and 0.492 ×10³ /M/min.
Consider `COc1ccccc1OC(=O)N1c2ccccc2Sc2ccccc21`, for which the affinity in [1] corresponds to a Ki of 340 nM. The molecule also came in with a Ka in test [2] of 5.99 ×10³ /M/min.
`CC(C)(C)OC(=O)N1c2ccccc2Sc2ccccc21` registered an inhibitory constant (Ki) in test [1] of 4300 nM. The same molecule had a Ka in test [2] of 0.219 ×10³ /M/min.
For `CCCOC(=O)N1c2ccccc2Sc2ccccc21`, the Ki in test [1] came to 260000 nM. Further, the Ka in test [2] amounted to 0.219 ×10³ /M/min.

Values taken from ChEMBL document CHEMBL1155042, “Carbamates with differential mechanism of inhibition toward acetylcholinesterase and butyrylcholinesterase” (J Med Chem, 2008).
